Experimental data published in a melting point compilation (Tetko et al.; mined from patent text by program, amines drawn as free bases though some values may be those of a salt).

Structure (SMILES)	melting point [°C]
Cc1ccc(=O)n(-c2cc(F)c(C#N)cc2F)n1	159
Cc1cc(Cc2cc(C)c(N=C=O)c(C)c2)cc(C)c1N=C=O	130 to 131
CCCCC1CSC(C(=O)Nc2c(SC)cc(C)nc2SC)c2cc(OC)c(OC)cc2C1 (stereo not given)	143 to 145
CC1OC(n2cnc3c(N)nc(F)nc32)C(O)C1O (stereo not given)	244 to 245
C[C@@H](CN)CCC[C@@H](C)[C@H]1CC[C@H]2[C@@H]3CC=C4C[C@@H](O)CC[C@]4(C)[C@H]3CC[C@]12C	150 to 152
CCOC(CNC(=C[N+](=O)[O-])SC)OCC	73 to 73.5
CC1=C(C)C(=O)N(c2ccc(Cl)c(Cl)c2)C1=O	188
CC(C(=O)N(C)C)n1cc(Cl)c(-c2ccccc2Cl)n1 (stereo not given)	108 to 111
CN(C=C(S(=O)(=O)c1ccccc1)S(=O)(=O)c1ccccc1)c1ccc(Cl)cn1	205 to 206
CC(C)(C)NC(=O)[C@@H]1C[C@H](Cl)CN1C(=O)[C@@H](O)[C@H](Cc1ccccc1)NC(=O)[C@H](CC(N)=O)NC(=O)OCc1ccccc1	103 to 107
CC1(C)OC(=O)C(OC2CCCCC2)=C1c1ccc(S(C)(=O)=O)cc1	143 to 144
O=[N+]([O-])c1cnc(N2CCc3ccccc3CC2)c([N+](=O)[O-])c1	137 to 140
N#Cc1nn(-c2c(Cl)cc(C(F)(F)F)cc2Cl)c(N)c1SC(F)(F)C(F)(F)F	134 to 136
COCc1cn(-c2cccc(C(F)(F)F)c2)nc(C(=O)N(C)OC)c1=O	157 to 159
CCCCS(=O)c1ccc(C#N)nc1 (stereo not given)	54 to 55
CN1C(=O)[C@@H](NC(=O)C(C)(C)C)N=C(c2ccccc2)c2ccccc21	85 to 94
N#Cc1cc(F)c(-n2ncc(=O)[nH]c2=O)cc1F	> 250
O=C(/C=C/c1cccc(Br)c1)NC1CC1	110 to 111
CCCCCCCCCCCCSC(=O)CS(=O)(=O)Nc1c(C(C)C)cccc1C(C)C	58 to 60
CCCCCN(CCCCC)C(=O)C(Cc1ccc(OCC(=O)O)c(C(=O)O)c1)NC(=O)C(Cc1ccccc1)NC(=O)OC(C)(C)C (stereo not given)	87 to 90
CCn1c2ccccc2c2cc(N(c3ccccc3)c3ccc(-c4ccc(N(c5ccccc5)c5ccc6c(c5)c5ccccc5n6CC)cc4)cc3)ccc21	250 to 252
CCCCCCC(C(=O)O)n1nnc(NC(=O)c2ccccc2C(=O)O)n1 (stereo not given)	140 to 142

Structure (SMILES)	melting point [°C]
CCCCCCCCCCCC#Cc1ccccc1C=C(C(=O)OCC)P(=O)(O)O	68 to 69
CC1CCc2ccc(C#N)c3c(=O)c(C(=O)O)cn1c23 (stereo not given)	> 300
CS(=O)(=O)c1ccc(C(CC2CCCC2)C(=O)Nc2nccs2)cc1S(C)(=O)=O (stereo not given)	104 to 107
CC(=O)OC1CSC(Oc2cnccc2C#N)C(OC(C)=O)C1OC(C)=O (stereo not given)	167
O=C1N(c2ccc(Cl)cc2)C(Cl)(Cl)C2CCCCC12Cl (stereo not given)	120 to 124
CC(=O)NCC1CN(c2ccc(N3CCC(=C(C)C#N)C(F)C3)c(F)c2)C(=O)O1 (stereo not given)	148 to 150
C#Cc1ccc2nc(Cl)c(S(=O)(=O)N=CN(CC(C)C)CC(C)C)n2n1	166 to 168
O=C(Nc1cn(C2CCCCO2)nc1C(=O)NCCNc1ccccn1)c1ccccn1 (stereo not given)	178 to 180
Nc1cc(C2CC2)nn1C(=O)Nc1ccccc1	97 to 99
O=C(Cc1ccc(Cl)c(Cl)c1)N(O)[C@H](CN1CCCC1)c1ccccc1	118 to 120
CC(C)CC(=O)Nc1cc(-c2ccnc3c(C(=O)c4cccs4)cnn23)ccc1F	192 to 194
Cc1ccc([N+](=O)[O-])c(C=C2C(=O)NC(=O)N2C)c1C	195 to 198
CC(C)C(=O)NC(c1ccc(C=O)cc1)C(F)(F)F (stereo not given)	132 to 133
C[C@H]1COc2c(N3C[C@@H]4CCOC[C@@]4(N)C3)c(F)cc3c(=O)c(C(=O)O)cn1c23	> 300
CN(C(=O)c1cccc(C(=C2CC3CCC(C2)N3C)c2ccccc2)c1)c1cccc(F)c1	122 to 125
C=CC(=O)NCC(=O)Nc1cc(Cl)c(C)c(Cl)c1O	225 to 227
O=C(CCCC(Cc1c[nH]c2ccccc12)(NC(=O)OC1C2CC3CC(C2)CC1C3)C(=O)NCCc1ccccc1)OCc1ccccc1 (stereo not given)	115 to 136
CNC(=O)OC(C)C(=O)Nc1ccc(C2=NNC(=O)CC2C)cc1 (stereo not given)	96 to 98
CCC(NC(=O)C(F)F)c1ccc(Cl)c2nc3n(c12)CCCN3c1ccc(Cl)cc1Cl (stereo not given)	248 to 250
CCCCCCCCCCCCCCCCCCOCc1ccc(C(=O)O)cc1OCCCCCCCCCCCCCCCCCC	87 to 88
O=C1CCC2=C(CCc3cc(Cl)ccc32)N1	228 to 230
c1ccc(-c2cnc3c(c2)nnc2cncn23)cc1	225 to 227

Other lines, results leading:

melting point [°C]	Structure (SMILES)
187 to 188	COc1ccc(C(=O)Nc2cc(NC(=O)c3cccc(NC(C)=O)c3)ccc2C)cc1OC
230 to 240	Cc1ccnc(Nc2nc(-c3ccc4c(c3)OCCO4)cs2)c1
221 to 224	O=C(Nc1ccc(-n2cnc(Cl)c2Cl)cc1)Nc1ccc(C(F)(F)F)cc1
158 to 160	COc1ccc(C(=O)NCC(O)CC(=O)O)cc1OCc1ccccc1 (stereo not given)
175 to 176	CCN(CC)C(=O)Cc1ccc(NC(=O)/C=C/c2cnn(C)c2-c2ccc(F)cc2)cc1
97 to 100	Cc1ccc(-c2cc3ccc4ccccc4c3o2)cc1
118	CCCCOc1ccc(S(=O)(=O)C2(C(=O)NO)CCN(Cc3ccncc3)CC2)cc1
127 to 129	Cc1nc(-c2cc3cc(OCCNC[C@H](O)c4cccc(Cl)c4)ccc3o2)cs1
110 to 111	CC(C(=O)O)c1ccc(-c2ccccc2F)c(O)c1 (stereo not given)
48 to 51	Cc1c(-c2ccccc2)c(N2CC[C@H](N(C)C)C2)c2oc(N3CC(CO)C3)nc2c1C#N
222 to 225	COC(=O)c1n[nH]c(=O)c2cc(OC)ccc12
112	COc1ccc(S(N)(=O)=O)cc1C(O)CCl (stereo not given)
156 to 158	O=C(Oc1ccccc1)c1ccc(C(=O)Oc2ccccc2)c(C(=O)Oc2ccccc2)c1
156 to 160	CN1CCN(c2cccc3ccc(NC(=O)c4ccc(O)cc4)cc23)CC1
174 to 175	COc1ccc(S(=O)(=O)Nc2c(Cl)ncnc2Nc2ccccc2)cc1
144	Cc1ccc(-c2cn(C)cc(-c3ccccc3)c2=O)cc1
156 to 157	CCOc1nn(Cc2ccc(OCc3nc(-c4cccs4)oc3C)cc2)cc1CCC(=O)O
112 to 113	Cc1c(-c2ccccc2)oc2c(CCl)cccc2c1=O
233 to 236	COCCn1nc2c(N)nc3ncccc3c2c1CC(C)(C)O
172	Cc1cccc(NC(=O)c2ccc3nc(NC4CCN(C)CC4)n(Cc4nc(C)ccc4O)c3c2)c1
123 to 124	Cc1c(C)n(CC2CC2)c2c(OCc3ccccc3)nncc12
294 to 295	COc1ccc2[nH]cc(-c3cc4c(OC)ccnc4[nH]3)c2c1
173 to 174	CC(=O)Oc1ccc(N=c2scc(-c3ccc(Cl)c(S(=O)(=O)N(C)C)c3)n2C)cc1
129 to 131	COc1cccc(-c2nn(-c3ccccc3)c(-c3cccc(OC)c3)c2CC(=O)O)c1
192 to 195	Cc1cccc(Nc2cc(Nc3ccc(OCC(O)CN(C)C)cc3)ncn2)c1 (stereo not given)
128	COc1cc(OCc2oc(=O)oc2C)c(C(=O)CCc2ccc3occc3c2)cc1C1OC(CO)C(O)C(O)C1O (stereo not given)

melting point [°C]	Structure (SMILES)
129 to 140	Cc1ccc(S(=O)(=O)ON=C(C#N)c2ccc(F)cc2)cc1
178 to 180	O=[N+]([O-])c1cc(-c2nnn[nH]2)ccc1OCc1ccccc1
198 to 201	CNc1ccc(C(=O)c2ccccc2)cc1[N+](=O)[O-]
121 to 125	CC(Cc1ccc(OCc2ccccc2)cc1)NC(=O)CC(c1ccccc1)c1ccccc1 (stereo not given)
193 to 194	COc1ccc(CC(C)=NO)cc1S(N)(=O)=O
184 to 185	CNc1nnc(-c2ccc3occ(-c4ccc(OC(F)(F)F)cc4)c3c2)o1
114 to 115	CC(C)CCCC(C)NC(=O)Oc1ccc2oc3ccccc3c2c1 (stereo not given)
195 to 196	CC(=O)c1ccc2oc3ncccc3c(=O)c2c1
122 to 123	COP(=O)(CN[C@@H](Cc1ccc(-c2ccccc2)cc1)C(=O)NCCC(=O)O)OC
135 to 137	COc1cc(C=C(C(=O)O)c2ccc(O)cc2)cc(OC)c1
156 to 160	CCCN(C)CCCN1CCN(c2cc(-c3ccnc(NCc4cccc(OC)c4)n3)cc3ccc(OC)cc23)CC1
65 to 75	COc1ccc(CCc2oc3ccc(Br)cc3c2CO)cc1
201 to 203	CC1c2ccccc2-c2cc(Br)ccc2N1S(=O)(=O)c1ccc(O)cc1 (stereo not given)
36 to 38	CC1(C)CCC2(Cc3ccc(Cl)cc3)OC12CO (stereo not given)
208 to 209	CCCCS(=O)(=O)Nc1ccc(Oc2cccc3c(C)ccnc23)cc1
196 to 197	Cc1cccc(-c2ccc3c(c2)c2c(n3Cc3ccc(C(C)(C)C)cc3)COC(=O)C2=O)c1
126 to 130	COc1cccc(COc2ncc(F)c(NS(N)(=O)=O)n2)c1
190	COc1cc(-c2nc3cc(F)ccc3s2)ccc1OC(=O)c1cccc([N+](=O)[O-])c1
131 to 133	COc1ccc2[nH]c(SCc3nccc(N4CCCC4)c3Cl)nc2c1
208 to 210	Fc1ccc2[nH]c3c4ccccc4nc-3c(Cl)c2c1
192	O=C(NC(=O)c1ccccc1Cl)Nc1cc(C(F)(F)F)c(F)cc1Br
181 to 182	Cc1c(NC(=O)NC(C)(C)CO)c(C)c2c(c1-c1ccccc1)OCC2c1ccc(C(C)C)cc1 (stereo not given)
209 to 210	O=C(O)c1cc(-n2c(-c3ccccc3)cc3c2CCCC3)cc(Br)c1O
231 to 232	CCOC(=O)c1cnc(=O)n2c1sc1cc(OC)ccc12
127 to 128	Cc1cc(OCc2ccccc2)cc(OCC2CCCCC2)c1C(=O)O
